Data reported in patent US20140335050A1, “METHODS, COMPOSITIONS, AND KITS FOR THE TREATMENT OF CANCER” (The General Hospital Corporation, priority 2011, published 2014).
“Also recorded” adds a separate entry of the source.

Tests used:
MU89 melanoma cell line = assay: Antibody staining and flow cytometry (intracellular Melan-A/MART-1, gp100, TRP-2; surface MHC Class I/II); type: cell-based, human
Method: (§1) Cells were fixed with 1% formaldehyde, permeabilized with 0.1% saponin, stained with monoclonal antibodies to melanocyte antigens. Antibodies were obtained with specificity for: MART-1 from Vector Labs (Burlingame, Calif.); gp100 HMB45 from DakoCytomation (Carpinteria, Calif.) and then visualized with goat anti-mouse FITC-conjugated secondary antibody from Invitrogen (Fredrick, Md.). The level of EGFP was determined by flow cytometry of unfixed cells that were washed and resuspended in 1×PBS.
(§2) Cells were plated at a density of 1×10^5 in 1 ml of medium in a 24-well plate and cultured for varying times as indicated in results. […] After incubation, cells were collected by trypsinization and then evaluated by flow cytometry.
(§3) Intracellular staining and flow cytometric analyses of cytoplasmic Melan-A/MART-1, and gp100 expression were performed as described previously. Cells were fixed with 1% formaldehyde, permeabilized with 0.1% saponin, stained with monoclonal antibodies to melanocyte antigens. Antibodies were obtained with specificity for: Melan-A/MART-1 from Vector Labs (Burlingame, Calif.); gp100/HMB45 from DakoCytomation (Carpinteria, Calif.) and then visualized with goat anti-mouse FITC-conjugated secondary antibody from Invitrogen (Frederick, Md.). The level of EGFP was determined by flow cytometry of unfixed cells washed and resuspended in 1×PBS. Surface staining of MHC Class I was carried out using the antibody W6/32 on cells harvested with Cell Stripper from MediaTech Inc. (Manassas, Va.) and carried out on ice.
(§4) Cell were seeded at 1×10^6 cells in a T25 flask with 10 ml of media for the 4 day IFN-beta pre-treatments. Cells were then harvested and plated in 24 well plate at 1×10^5 cells per well in 1 ml of media for 3 day treatments.
(§5) For surface staining of HLA Class I and II antigens, cells were harvested using CellStripper™ from Mediatech (Manassas, Va.). All staining steps were performed on ice. Following a first incubation with antibody to Class I (W6/32) or Class II (L243) for 30 minutes. Stained cells were washed twice with cold PBS and then stained with a goat anti-mouse FITC secondary antibody to allow for quantitative analysis by flow cytometry. For evaluation of cytoplasmic antigens, including Melan-A/MART-1 and gp100, cells were first fixed in paraformaldehyde and permeabilized with saponin as previously described. Staining for cytoplasmic antigens was carried out at room temperature (22° C.).

[1] = tested on: MALME-3M melanoma cell line; assay: Antibody staining and flow cytometry (intracellular Melan-A/MART-1, gp100, TRP-2; surface MHC Class I); type: cell-based, human
Method: as §1, §2, §3

[2] = tested on: U-118 MG glioma cell line; assay: Antibody staining and flow cytometry (intracellular gp100; surface MHC Class I/II); type: cell-based, human; details: for Class I MHC, geometric mean of surface staining (W6/32): U-118
Method: as §1, §2, §3, §4, §5

U-87 MG glioma cell line = assay: Antibody staining and flow cytometry (intracellular gp100; surface MHC Class I); type: cell-based, human
Method: as §1, §2, §3

[3] = tested on: B16 murine melanoma cell line; assay: Antibody staining and flow cytometry (intracellular gp100, TRP-2; surface Class I with H2kb antibody); type: cell-based, mouse; details: 3 days, 17-AEP 0.5, PU-H71 0.15, CCT018159 2.5 μg/ml
Excerpt: To further evaluate enhancement of immune recognition of cancer cells by inhibition of Hsp90 function, it was shown that a total of twelve different Hsp90 inhibitors were active in several molecular and cellular assays on a series of cell lines, including eleven human melanomas, the murine B16 melanoma, and two human gliomas. […] The melanomas all express varying levels of differentiation antigens Melan-A/MART-1, gp100 and TRP-2, as well as the MHC-Class I antigen (as evidenced by W6/32 antibody staining) that is required for T cell recognition of the tumor cells. Each of these antigens is enhanced by all of the Hsp90 inhibitors. […] Similar to the human counterparts, the B16 mouse tumor also can be induced to express enhanced antigen levels upon 3-day exposure to each of the Hsp90 inhibitors (Table 16). The mouse H-2 Class I antigen is likewise induced by the Hsp90 inhibitors.
General culture conditions for cell propagation and the origins of most of the melanoma cell lines have been previously described. Melanoma cells were cultured in DMEM with 10% FBS. The glioma cell lines U87 MG and U118 MG were obtained from the American Type Culture Collection (ATCC). The B16 murine melanoma cell line was provided by Dr. Andrew Hurwitz and has been previously described. The T cell receptor (TCR)-negative Jurkat T cell line derivative J.RT3-T3.5 was obtained from ATCC. The construction of the J.RT3-T3.5 cell line expressing a Melan-A/MART-1 specific TCR has been described previously. T cells were cultured in RPMI with 10% FBS. IFN-beta-1a (Avonex) was obtained from Biogen-Idec (Cambridge, Mass.) and reconstituted according to the manufacturer's recommendations. The Hsp90 inhibitor radicicol was purchased from A.G. Scientific (San Diego, Calif.). Novobiocin was ordered from BioMol (Plymouth Meeting, Pa.). 17-DMAG was obtained from LC laboratories (Woburn, Mass.). 17-AEP-AP was purchased from InVivoGen (San Diego, Calif.). […] Gedunin, CCT018159, and celastrol were purchased from Tocris (Ellisville, Mo.). Selleck Chemicals (Houston, Tex.) provided NVP-AUY922 and BIIB021.
Cells were plated at a density of 1×10^5 in 1 ml of medium in a 24-well plate and cultured for varying times as indicated in results. Typically, 3 days of culture in the presence of Hsp90 inhibitors was optimal for the functional studies performed. After incubation, cells were collected by trypsinization and then evaluated by flow cytometry.
as §3

[4] = MU89, 3 days, IFN-beta 5000 Units/ml, 17-AEP 1.0, PU-H71 0.3, CCT018159 10.0 μg/ml
[5] = MU89, three days, IFN-β 5000 Units/ml, IFN-γ 100 ng/ml, PU-H71 0.3 mg/ml
[6] = MU89 cells, Table 20, single agent or simultaneous combination
[7] = MALME-3M, 3 days, IFN-beta 5000 Units/ml, 17-AEP 1.0, PU-H71 0.3, CCT018159 10.0 μg/ml
[8] = U118 cells, Table 20, single agent or simultaneous combination
[9] = U-87 MG, 3 days, IFN-beta 5000 Units/ml, 17-AEP 0.5, PU-H71 0.3, CCT018159 5.0 μg/ml

CC(C)NCCCn1c(Sc2cc3c(cc2I)OCO3)nc2c(N)ncnc21 [PU-H71]
Class I, geometric mean of surface staining (W6/32) (MU89 melanoma cell line; [4]): 66
MART-1, geometric mean of intracellular staining (MU89 melanoma cell line; [4]): 147
TRP-2, geometric mean of intracellular staining (MU89 melanoma cell line; [4]): 214
gp100, geometric mean of intracellular staining (MU89 melanoma cell line; [4]): 381
MHC Class I, geometric mean of surface staining (W6/32) (MU89 melanoma cell line; MU89, 4 day IFN-β pre-treatment (5000 Units/ml), then 3 days with fresh IFN-β and the labelled HSP90 inhibitor (label IFN-β: no inhibitor), 17-AEP 1, PU-H71 0.3, CCT018159 10 mg/ml): 390
MHC Class I, geometric mean of surface staining (W6/32) (MU89 melanoma cell line; MU89, 4 day IFN-β pre-treatment (5000 Units/ml), then 3 days without IFN-β with the labelled HSP90 inhibitor (label IFN-β: no inhibitor), 17-AEP 1, PU-H71 0.3, CCT018159 10 mg/ml): 307
Class I antigen induction, sequential treatment (MU89 melanoma cell line; MU89, IFN-beta pre-treatment, then PU-H71 for 3 days (FIG. 22)): synergistically enhanced; also recorded: far exceeded what was achieved with either drug alone
Class II antigen level, sequential treatment (MU89 melanoma cell line; MU89, IFN-gamma for 3 days, subsequently PU-H71 (FIG. 23)): significantly greater than that achieved with IFN-gamma alone
MHC Class I, geometric mean of surface staining (W6/32) (MU89 melanoma cell line; MU89, single agent for 3 days, no IFN-β pre-treatment, IFN-β 5000 Units/ml): 75
MHC Class I, geometric mean of surface staining (W6/32) (MU89 melanoma cell line; MU89, three days, IFN-β 5000 Units/ml): 66
MHC Class I, geometric mean of surface staining (W6/32) (MU89 melanoma cell line; [5]): 99
MHC Class II, geometric mean of surface staining (L2443) (MU89 melanoma cell line; [5]): 43
L243 (MHC Class II surface staining) (MU89 melanoma cell line; [6]): 4.1
W6/32 (MHC Class I surface staining) (MU89 melanoma cell line; [6]): 72.1
L243 (MHC Class II surface staining) (MU89 melanoma cell line; MU89 cells, Table 21, no pre-treatment, treatment as labelled): 5
L243 (MHC Class II surface staining) (MU89 melanoma cell line; MU89 cells, Table 21, pre-treatment IFN-G (3 days), then treatment as labelled): 338
L243 (MHC Class II surface staining) (MU89 melanoma cell line; MU89 cells, Table 21, substance given as pre-treatment (3 days) only, no subsequent treatment): 2
Class II induction by IFN-gamma, combination (MU89 melanoma cell line; MU-89, Hsp90 inhibitor together with IFN-gamma): ablation of the IFN-gamma induction of Class II antigen
Class I expression, combination (MU89 melanoma cell line; MU-89, PU-H71 together with IFN-beta): additive effect
Class I induction by IFN-gamma, combination (MU89 melanoma cell line; MU-89, PU-H71 together with IFN-gamma): not further enhanced
L243 (MHC Class II surface staining) (MU89 melanoma cell line; MU-89, single agent): 4.5
Class I, geometric mean of surface staining (W6/32) [1, 7]: 137
MART-1, geometric mean of intracellular staining [1, 7]: 226
TRP-2, geometric mean of intracellular staining [1, 7]: 279
gp100, geometric mean of intracellular staining [1, 7]: 511
MHC Class I, geometric mean of surface staining (W6/32) ([1]; MALME, three days, IFN-β 5000 Units/ml): 137
MHC Class II, geometric mean of surface staining (L2443) ([2]; Giloma-118, three days, IFN-β 5000 Units/ml, IFN-γ 100 ng/ml, PU-H71 0.3 mg/ml): 4
MHC Class I, geometric mean of surface staining (W6/32) ([2]; Giloma-118, three days, IFN-β 5000 Units/ml, IFN-γ 100 ng/ml, PU-H71 0.3): 88
Class II induction, combination ([2]; U118, co-treatment with IFN-gamma and PU-H71): prevented
L243 (MHC Class II surface staining) ([2]; U118, single agent): 4.1
L243 (MHC Class II surface staining) [2, 8]: 6.3
W6/32 (MHC Class I surface staining) [2, 8]: 135.7
Class I MHC, geometric mean of surface staining (W6/32) ([2]; 4 day IFN-β pre-treatment (5000 Units/ml), then 3 days with fresh IFN-β, with PU-H71 0.3 where labelled (label IFN-β: no inhibitor)): 184
Class I MHC, geometric mean of surface staining (W6/32) ([2]; 4 day IFN-β pre-treatment (5000 Units/ml), then 3 days without IFN-β, with PU-H71 0.3 where labelled (label IFN-β: no inhibitor)): 224
Class I MHC, geometric mean of surface staining (W6/32) ([2]; single agent for 3 days, no IFN-β pre-treatment, IFN-β 5000 Units/ml, PU-H71 0.3): 138
gp100, geometric mean of intracellular staining ([2]; U-118 MG, 3 days, IFN-beta 5000 Units/ml, 17-AEP 1.0, PU-H71 0.3, CCT018159 10.0 μg/ml): 63
MHC Class I, geometric mean of surface staining (W6/32) ([2]; U-118 glioma, three days, IFN-β 5000 Units/ml, PU-H71 0.075-0.3): 88
Class I, geometric mean of surface staining (W6/32) (U-87 MG glioma cell line; [9]): 53
gp100, geometric mean of intracellular staining (U-87 MG glioma cell line; [9]): 66
MHC Class I, geometric mean of surface staining (W6/32) (U-87 MG glioma cell line; U-87 glioma, three days, IFN-β 5000 Units/ml, PU-H71 0.075-0.3): 71
Class I, geometric mean of surface staining (H2kb) [3]: 14
TRP-2, geometric mean of intracellular staining [3]: 360
gp100, geometric mean of intracellular staining [3]: 595
